Measurements reported in publication PMC9779606, “Synthesis, Structural Characterization and Biological Activity Evaluation of Novel Cu(II) Complexes with 3-(trifluoromethyl)phenylthiourea Derivatives” (International Journal of Molecular Sciences, 2022).

Tests used:
S. epidermidis 438 = experiment: MIC, hospital methicillin-resistant strains (MRSE); conditions: hospital MRSE strain S. epidermidis 438
S. epidermidis 424 = experiment: MIC, hospital methicillin-resistant strains (MRSE); conditions: hospital MRSE strain S. epidermidis 424
S. epidermidis 432 = experiment: MIC, hospital methicillin-resistant strains (MRSE); conditions: hospital MRSE strain S. epidermidis 432
S. epidermidis 513 = experiment: MIC, hospital methicillin-resistant strains (MRSE); conditions: hospital MRSE strain S. epidermidis 513
S. epidermidis 515 = experiment: MIC, hospital methicillin-resistant strains (MRSE); conditions: hospital MRSE strain S. epidermidis 515
[1] = system: S. epidermidis ATCC 12228; experiment: MIC, twofold serial microdilution, standard strains; conditions: S. epidermidis ATCC 12228, standard strain
S. aureus ATCC 6538 = experiment: as above; conditions: S. aureus ATCC 6538, standard strain
[2] = system: HaCaT (immortalized human keratinocytes); experiment: Cytotoxicity, MTT assay; format: cell-based; conditions: normal cells, 72 h, mean SD
Procedure: MTT assay was performed as previously described. Experiments were repeated three times. […] Decreased relative MTT level means decreased cell viability.

S. epidermidis 471 = experiment: MIC, hospital methicillin-resistant strains (MRSE); conditions: hospital MRSE strain S. epidermidis 471
S. epidermidis 469 = experiment: MIC, hospital methicillin-resistant strains (MRSE); conditions: hospital MRSE strain S. epidermidis 469
[3] = system: M. tuberculosis Spec. 192; experiment: Tuberculostatic activity, Microplate Alamar Blue Assay (MABA); format: cell-based, Mycobacterium tuberculosis; conditions: M. tuberculosis Spec. 192, patient isolate fully sensitive to tuberculostatics, MABA
C. albicans ATCC 10231 = experiment: MIC, twofold serial microdilution, standard fungal strains; conditions: C. albicans ATCC 10231, standard strain
S. aureus 537 = experiment: MIC, hospital methicillin-resistant strains (MRSA); conditions: hospital MRSA strain S. aureus 537
S. aureus 497 = experiment: MIC, hospital methicillin-resistant strains (MRSA); conditions: hospital MRSA strain S. aureus 497
S. aureus 522 = experiment: MIC, hospital methicillin-resistant strains (MRSA); conditions: hospital MRSA strain S. aureus 522
C. albicans ATCC 90028 = experiment: MIC, twofold serial microdilution, standard fungal strains; conditions: C. albicans ATCC 90028, standard strain
S. aureus 567 = experiment: MIC, hospital methicillin-resistant strains (MRSA); conditions: hospital MRSA strain S. aureus 567
E. coli ATCC 25922 = experiment: MIC, twofold serial microdilution, standard strains; conditions: E. coli ATCC 25922, standard strain
S. aureus ATCC 29213 = experiment: as above; conditions: S. aureus ATCC 29213, standard strain
S. epidermidis 437 = experiment: MIC, hospital methicillin-resistant strains (MRSE); conditions: hospital MRSE strain S. epidermidis 437
S. aureus 514 = experiment: MIC, hospital methicillin-resistant strains (MRSA); conditions: hospital MRSA strain S. aureus 514
S. epidermidis 435 = experiment: MIC, hospital methicillin-resistant strains (MRSE); conditions: hospital MRSE strain S. epidermidis 435
P. aeruginosa ATCC 15442 = experiment: MIC, twofold serial microdilution, standard strains; conditions: P. aeruginosa ATCC 15442, standard strain
S. aureus 495 = experiment: MIC, hospital methicillin-resistant strains (MRSA); conditions: hospital MRSA strain S. aureus 495
S. aureus 568 = experiment: MIC, hospital methicillin-resistant strains (MRSA); conditions: hospital MRSA strain S. aureus 568
S. aureus NCTC 4163 = experiment: MIC, twofold serial microdilution, standard strains; conditions: S. aureus NCTC 4163, standard strain
S. aureus 586 = experiment: MIC, hospital methicillin-resistant strains (MRSA); conditions: hospital MRSA strain S. aureus 586
S. epidermidis 510 = experiment: MIC, hospital methicillin-resistant strains (MRSE); conditions: hospital MRSE strain S. epidermidis 510
[4] = system: methicillin-resistant Staphylococci (MRSA, MRSE); conditions: all hospital staphylococcal strains, Table 5
P. aeruginosa ATCC 27853 = experiment: MIC, twofold serial microdilution, standard strains; conditions: P. aeruginosa ATCC 27853, standard strain
S. aureus 573 = experiment: MIC, hospital methicillin-resistant strains (MRSA); conditions: hospital MRSA strain S. aureus 573
S. aureus ATCC 25923 = experiment: MIC, twofold serial microdilution, standard strains; conditions: S. aureus ATCC 25923, standard strain
S. aureus 481 = experiment: MIC, hospital methicillin-resistant strains (MRSA); conditions: hospital MRSA strain S. aureus 481
S. aureus 496 = experiment: MIC, hospital methicillin-resistant strains (MRSA); conditions: hospital MRSA strain S. aureus 496

Q: Which MIC (S. epidermidis 438) does the source give for `CC(NC(=S)[N-]c1cccc(C(F)(F)F)c1)c1ccccc1.CC(NC(=S)[N-]c1cccc(C(F)(F)F)c1)c1ccccc1.[Cu+2]` (racemic) [Cu2, Copper(II) Complex with 1-(1-phenylethyl)-3-[3-(trifluoromethyl)phenyl]thiourea] here?
A: 16 µg/mL

Q: What about the MIC (S. epidermidis 424) of the same compound?
A: 16 µg/mL

Q: And the MIC (S. epidermidis 432)?
A: 16 µg/mL

Q: And the MIC (S. epidermidis 513)?
A: 16 µg/mL

Q: What about the MIC (S. epidermidis 515) of the same compound?
A: 16 µg/mL

Q: What about the MIC [1] of the same compound?
A: 32 µg/mL

Q: And the MIC (S. aureus ATCC 6538)?
A: 32 µg/mL

Q: And the IC50 [2]?
A: 220 ± 3.4 µM

Q: What about the MIC (S. epidermidis 471) of the same compound?
A: 16 µg/mL

Q: And the MIC (S. epidermidis 469)?
A: 32 µg/mL

Q: What about the MIC [3] of the same compound?
A: 8 µg/mL

Q: What about the MIC (C. albicans ATCC 10231) of the same compound?
A: 128 µg/mL

Q: And the MIC (S. aureus 537)?
A: 8 µg/mL

Q: What about the MIC (S. aureus 497) of the same compound?
A: 16 µg/mL

Q: And the MIC (S. aureus 522)?
A: 16 µg/mL

Q: And the MIC (C. albicans ATCC 90028)?
A: 128 µg/mL

Q: And the MIC (S. aureus 567)?
A: 8 µg/mL

Q: What about the MIC (E. coli ATCC 25922) of the same compound?
A: ≥256 µg/mL

Q: And the MIC (S. aureus ATCC 29213)?
A: 32 µg/mL

Q: What about the MIC (S. epidermidis 437) of the same compound?
A: 16 µg/mL

Q: What about the MIC (S. aureus 514) of the same compound?
A: 16 µg/mL

Q: And the MIC (S. epidermidis 435)?
A: 16 µg/mL

Q: And the MIC (P. aeruginosa ATCC 15442)?
A: 128 µg/mL

Q: And the MIC (S. aureus 495)?
A: 16 µg/mL

Q: And the MIC (S. aureus 568)?
A: 8 µg/mL

Q: And the MIC (S. aureus NCTC 4163)?
A: 32 µg/mL

Q: And the MIC (S. aureus 586)?
A: 8 µg/mL

Q: What about the MIC (S. epidermidis 510) of the same compound?
A: 16 µg/mL

Q: What about the “MIC level against hospital staphylococcal strains” value [4] of the same compound?
A: 8 to 128 µg/mL

Q: And the MIC (P. aeruginosa ATCC 27853)?
A: ≥256 µg/mL

Q: What about the MIC (S. aureus 573) of the same compound?
A: 8 µg/mL

Q: And the MIC (S. aureus ATCC 25923)?
A: 32 µg/mL

Q: What about the MIC (S. aureus 481) of the same compound?
A: 16 µg/mL

Q: What about the MIC (S. aureus 496) of the same compound?
A: 16 µg/mL

Q: Which results are given for `FC(F)(F)c1cccc([N-]C(=S)Nc2cccc(Br)c2)c1.FC(F)(F)c1cccc([N-]C(=S)Nc2cccc(Br)c2)c1.[Cu+2]` [Cu4, Copper(II) Complex with 1-(3-bromophenyl)-3-[3-(trifluoromethyl)phenyl] thiourea]?
A: MIC (S. epidermidis 438): 8 µg/mL; MIC (S. epidermidis 424): 8 µg/mL; MIC (S. epidermidis 432): 8 µg/mL; MIC (S. epidermidis 513): 8 µg/mL; MIC (S. epidermidis 515): 8 µg/mL; MIC [1]: 8 µg/mL; MIC (S. aureus ATCC 6538): 4 µg/mL; IC50 [2]: 388 ± 4.4 µM; MIC (S. epidermidis 471): 8 µg/mL; MIC (S. epidermidis 469): 8 µg/mL; MIC [3]: 4 µg/mL; MIC (C. albicans ATCC 10231): ≥256 µg/mL; MIC (S. aureus 537): 8 µg/mL; MIC (S. aureus 497): 8 µg/mL; MIC (S. aureus 522): 8 µg/mL; MIC (C. albicans ATCC 90028): ≥256 µg/mL; MIC (S. aureus 567): 8 µg/mL; MIC (E. coli ATCC 25922): 128 µg/mL; MIC (S. aureus ATCC 29213): 8 µg/mL; MIC (S. epidermidis 437): 8 µg/mL; MIC (S. aureus 514): 8 µg/mL; MIC (S. epidermidis 435): 8 µg/mL; MIC (P. aeruginosa ATCC 15442): ≥256 µg/mL; MIC (S. aureus 495): 8 µg/mL; MIC (S. aureus 568): 8 µg/mL; MIC (S. aureus NCTC 4163): 8 µg/mL; MIC (S. aureus 586): 8 µg/mL; MIC (S. epidermidis 510): 8 µg/mL; MIC level against hospital staphylococcal strains [4]: 8 to 128 µg/mL; MIC (P. aeruginosa ATCC 27853): 128 µg/mL; MIC (S. aureus 573): 8 µg/mL; MIC (S. aureus ATCC 25923): 8 µg/mL; MIC (S. aureus 481): 8 µg/mL; MIC (S. aureus 496): 8 µg/mL
